Molecular target: full-length recombinant human FYN A (Homo sapiens (Human), UniProt P06241)
Assay: ADP-Glo Kinase Assay of FYN kinase inhibition
Assay type: biochemical
Details: primary screen, initial compounds
In short: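 GST-tagged full-length FYN A (baculovirus, Sf9) at 3 pg preincubated 30 min RT with compound (10-point 3-fold series from 10 μM) in Tris pH 7.5/MgCl2 buffer. 12-mer tyrosine peptide plus 12.5 pmol ATP added, 90 min RT; ADP measured by ADP-Glo luminescence, IC50 from dose-response.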

full-length recombinant human FYN A, sequence (P06241 whole entry): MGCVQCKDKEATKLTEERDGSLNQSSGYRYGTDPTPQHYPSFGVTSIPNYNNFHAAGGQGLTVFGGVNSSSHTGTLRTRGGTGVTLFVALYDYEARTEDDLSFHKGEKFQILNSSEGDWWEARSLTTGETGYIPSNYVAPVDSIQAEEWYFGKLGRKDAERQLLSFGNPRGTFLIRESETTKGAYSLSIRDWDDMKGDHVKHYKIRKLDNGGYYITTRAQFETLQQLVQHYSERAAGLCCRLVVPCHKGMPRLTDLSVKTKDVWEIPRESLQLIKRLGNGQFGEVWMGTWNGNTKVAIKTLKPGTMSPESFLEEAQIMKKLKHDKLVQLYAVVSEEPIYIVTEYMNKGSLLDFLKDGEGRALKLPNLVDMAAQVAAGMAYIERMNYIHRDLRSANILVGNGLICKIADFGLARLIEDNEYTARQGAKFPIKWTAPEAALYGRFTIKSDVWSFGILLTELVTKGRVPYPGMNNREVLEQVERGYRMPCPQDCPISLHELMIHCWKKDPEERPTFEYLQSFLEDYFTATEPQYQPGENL

SMILES	IC50 [nM]
CN(C)C(=O)c1cccc(-c2cnc3sc(NCc4ccccc4)nn23)c1 [Compound 286, 3-[2-(benzylamino)imidazo[2,1-d] [1,3,4]thiadiazol-5-yl]-N,N-dimethyl-benzamide]	1510
COc1ccc(-c2cnc3sc(NCc4ccncc4)nn23)cn1 [Compound 287, 5-(6-methoxy-3-pyridyl)-N-(4-pyridylmethyl) imidazo[2,1-b] [1,3,4]thiadiazol-2-amine]	2590
CC(=O)c1cccc(-c2cnc3c(NC=O)cc(-c4ccc(C(=O)N5CCOCC5)cc4)cn23)c1 [Compound 291, N-[3-(3-acetylphenyl)-6-[4-(morpholine-4-carbonyl)phenyl]imidazo[1,2-a]pyridin-8-yl]formamide]	2990
COc1cc(-c2cnc3ccc(-c4cccc(NC(C)=O)c4)nn23)ccc1O [Compound 292, N-[3-[3-(4-hydroxy-3-methoxy-phenyl)imidazo [1,2-b]pyridazin-6-yl]phenyl] acetamide]	102
COc1ccc(-c2cc(=O)c3cc(O)ccc3o2)cc1OC [Compound 300, 2-(3,4-dimethoxy-phenyl)-6-hydroxy-chromen-4-one]	8950
OCc1cccc(-c2cnc3ccc(Cc4ccc(F)cc4)nn23)c1 [Compound 302, [3-[6-[(4-fluorophenyl)methyl]imidazo [1,2-b]pyridazin-3-yl]phenyl] methanol]	3970
COc1cccc(-c2ccc3ncc(-c4cccc(CO)c4)n3n2)c1 [Compound 303, [3-[6-(3-methoxyphenyl)imidazo[1,2-b]pyridazin-3-yl]phenyl] methanol]	2740
CN1CCN(c2ccc(Nc3cc4c(cn3)cc(-c3cccnc3)n4Cc3ccccc3)cc2)CC1 [Compound 305, 1-benzyl-N-[4-(4-methyl-piperazin-1-yl)phenyl]-2-(3-pyridyl)pyrrolo [3,2-c]pyridin-6-amine]	13700
c1ccc(Nc2cc3[nH]c(-c4cn[nH]c4)cc3cn2)nc1 [Compound 306, 2-(1H-pyrazol-4-yl)-N-(2-pyridyl)-1H-pyrrolo[3,2-c]pyridin-6-amine]	7570
CS(=O)(=O)c1ccc(Nc2cc3[nH]c(-c4cn[nH]c4)cc3cn2)cc1 [Compound 307, N-(4-methyl-sulfonylphenyl)-2-(1H-pyrazol-4-yl)-1H-pyrrolo[3,2-c]pyridin-6-amine]	4780
c1ccc(Cn2c(-c3cccnc3)cc3cnc(Nc4ccncn4)cc32)cc1 [Compound 308, 1-benzyl-2-(3-pyridyl)-N-pyrimidin-4-yl-pyrrolo[3,2-c]pyridin-6-amine]	6850
COc1cccc(Nc2cc3[nH]c(-c4cn[nH]c4)cc3cn2)c1 [Compound 309, N-(3-methoxyphenyl)-2-(1H-pyrazol-4-yl)-1H-pyrrolo[3,2-c]pyridin-6-amine]	16600
COc1ccc(Nc2cc3[nH]c(-c4cn[nH]c4)cc3cn2)cc1OC [Compound 310, N-(3,4-dimethoxy-phenyl)-2-(1H-pyrazol-4-yl)-1H-pyrrolo[3,2-2]pyridin-6-amine]	12700
CN1CCN(c2ccc(Nc3cc4c(cn3)cc(-c3ccccc3)n4Cc3ccccc3)cc2)CC1 [Compound 311, 1-benzyl-N-[4-(4-methylpiperazin-1-yl)phenyl]-2-phenyl-pyrrolo[3,2-c]pyridin-6-amine]	15000

More lines, in order of falling IC50, values ahead:

IC50 [nM]	SMILES
2460	CN(C)C(=O)c1cccc(-c2cnc3sc(NCc4ccco4)nn23)c1 [Compound 289, 3-[2-(2-furylmethylamino)imidazo[2,1-p] [1,3,4]thiadiazol-5-yl]-N,N-dimethyl-benzamide]
2230	OCc1ccc(-c2ccc3ncc(-c4cccc(CO)c4)n3n2)cc1 [Compound 295, [4-[3-[3-(hydroxymethyl)phenyl]imidazo [1,2-b]pyridazin-6-yl]phenyl] methanol]
2040	OCc1cccc(-c2cnc3ccc(-c4cccnc4)nn23)c1 [Compound 301, [3-[6-(3-pyridyl)imidazo [1,2-b]pyridazin-3-yl]phenyl] methanol]
1890	NC(=O)c1ccc(-c2ccc3ncc(-c4cccc(CO)c4)n3n2)cc1 [Compound 296, 4-[3-[3-(hydroxymethyl)phenyl]imidazo [1,2-b]pyridazin-6-yl]benzamide]
1770	COc1cc(-c2cnc3sc(NCCc4ccncc4)nn23)cc(OC)c1OC [Compound 284, N-[2-(4-pyridyl)ethyl]-5-(3,4,5-trimethoxy-phenyl)imidazo [2,1-b][1,3,4] thiadiazol-2-amine]
1640	CC(=O)Nc1cccc(-c2ccc3ncc(-c4cccc(CO)c4)n3n2)c1 [Compound 288, N-[3-[3-[3-(hydroxymethyl)phenyl]imidazo [1,2-b]pyridazin-6-yl]phenyl] acetamide]
1480	CN(C)CCNC(=O)c1cccc(-c2cnc3ccc(-c4ccc(CO)cc4)nn23)c1 [Compound 297, N-(2-dimethylamino-ethyl)-3-[6-[4-(hydroxymethyl)phenyl]imidazo [1,2-b]pyridazin-3-yl]benzamide]
1200	NC(=O)c1cccc(-c2ccc3ncc(-c4ccncc4)n3n2)c1 [Compound 313, 3-[3-(4-pyridyl)imidazo [1,2-b]pyridazin-6-yl]benzamide]
1100	CC(=O)Nc1cccc(-c2cnc3ccc(-c4ccc(N(C)C)cc4)nn23)c1 [Compound 290, N-[3-[6-(4-dimethylamino-phenyl)imidazo [1,2-a]pyridazin-3-yl]phenyl] acetamide]
1070	CC(=O)Nc1cccc(-c2cnc3ccc(-c4cccc(O)c4)nn23)c1 [Compound 315, N-[3-[6-(3-hydroxyphenyl)imidazo[1,2-b]pyridazin-3-yl]phenyl] acetamide]
994	CC(=O)c1cccc(-c2cnc3ccc(-c4cccc(O)c4)nn23)c1 [Compound 294, 1-[3-[6-(3-hydroxyphenyl)imidazo[1,2-a]pyridazin-3-yl]phenyl] ethanone]
830	CS(=O)(=O)Nc1cccc(-c2ccc3ncc(-c4ccc(CO)cc4)n3n2)c1 [Compound 293, N-[3-[3-[4-(hydroxymethyl)phenyl]imidazo [1,2-b]pyridazin-6-yl]phenyl] methane-sulfonamide]
773	CC(=O)Nc1cccc(-c2cnc3ccc(-c4ccccc4)nn23)c1 [Compound 314, N-[3-(6-phenylimidazo [1,2-b]pyridazin-3-yl)phenyl] acetamide]
585	COc1ccccc1-c1ccc2ncc(-c3ccncc3)n2n1 [Compound 312, 6-(2-methoxyphenyl)-3-(4-pyridyl)imidazo [1,2-b]pyridazine]
519	CC(=O)Nc1ccc(-c2ccc3ncc(-c4cccc(O)c4)n3n2)cc1 [Compound 283, N-[4-[3-(3-hydroxyphenyl)imidazo[1,2-b]pyridazin-6-yl]phenyl] acetamide]
311	NC(=O)c1cccc(-c2ccc3ncc(-c4cccc(O)c4)n3n2)c1 [Compound 298, 3-[3-(3-hydroxyphenyl)imidazo[1,2-b]pyridazin-6-yl]benzamide]
298	CS(=O)(=O)Nc1cccc(-c2ccc3ncc(-c4ccncc4)n3n2)c1 [Compound 304, N-[3-[3-(4-pyridyl)imidazo [1,2-b]pyridazin-6-yl]phenyl] methane-sulfonamide]
223	COc1cc(-c2ccc3ncc(-c4ccc(CO)cc4)n3n2)ccc1O [Compound 299, 4-[3-[4-(hydroxymethyl)phenyl]imidazo [1,2-b]pyridazin-6-yl]-2-methoxy-phenol]
